From US5521293A (Lever Brothers Company, Division of Conopco, Inc., priority 1995, dated 1996)

Key:
Format in all cases: physicochemical
[1] = Krafft point of aqueous dispersion of aldonamide; details: 0.1% in water by weight
Procedure: The temperature at and above which surfactants begin to form micelles instead of precipitates is referred to as the Krafft point (Tk) and at this temperature the solubility of a surfactant becomes equal to its CMC (numerical value at which micelles are formed).
The Krafft point was measured by preparing 650 ml of a 0.1% or 1.0% dispersion of aldonamide in water by weight. If the surfactant was soluble at room temperature, the solution was slowly cooled to 0° C. […] (less than zero). If it precipitated out of solution, the temperature at which precipitation occurs was taken as the Krafft point.
If the surfactant was insoluble at :room temperature, the dispersion was slowly heated until the solution became homogeneous. It was then slowly cooled until precipitation occurred. The temperature at which the surfactant precipitates out of solution upon cooling was taken as the Krafft point.

[2] = Critical micelle concentration (Wilhelmy plate method); details: 60° C.
Procedure: The critical micelle concentration (CMC) is defined as the concentration at which a surfactant forms micelles in aqueous solution. Micellization is the preferred interfacial phenomena, since certain surfactant benefits such as detergency (the solubilization of soils), foaming, wetting or emulsification depend on the formation of these aggregates in solution.
The CMC value of C8 /C10 oxypropyl D-gluconamide was determined by plotting surface tension as a function of log(concentration) and extrapolating linear points to obtain an intersection point. The concentration at this point was taken as the CMC. The technique used was the Wilhelmy plate method and the instrument used was a Lauda Auto-Tensiometer. While wishing not to be bound to theory, it is believed that surfactants with low CMC values form micelles more readily at lower concentrations than those with high CMC values.
The critical micelle concentration (CMC) value of C8 /C10 oxypropyl D-gluconamide (molecular weight=375.02 g/mole, 65.9% C8, 34.1% C10) was determined and is set forth below: […]

[3] = Surface tension at the water/air interface; details: 60° C.
Procedure: An important characteristic feature that surfactants have is the tendency for them to absorb at the water/air interface in an oriented manner, thereby altering the interfacial free energy of that surface. The surface free energy per unit area or surface tension (γ), is a measure of this work and may be considered as the minimum amount of work required to bring sufficient surfactant molecules to the surface.
The surface tension (γ) value of C8 /C10 oxypropyl D-gluconamide was determined and is set forth below: […]

[4] = Efficiency in surface tension reduction (pC20)
Description: Since surface tension reduction depends on the replacement of water molecules at the interface by surfactant molecules, the efficiency of a surfactant in reducing interfacial tension should reflect the concentration of surfactant at the interface relative to that in bulk liquid phase. A suitable measure of efficiency with which a surfactant performs this function can be described as pC20. This is defined as the negative logarithm of the bulk phase surfactant concentration necessary to reduce the surface tension of water by 20 dyn/cm and is given as:
In general, pC20 values are usually close to the minimum concentration needed to saturate the interface with surfactant molecules.

[5] = Effectiveness in reducing surface tension (surface pressure at the CMC); details: 60° C.
Description: Effectiveness of a surfactant in reducing surface tension is defined as the maximum reduction in surface tension that can be obtained regardless of the bulk phase surfactant concentration.
As mentioned before, surface tension reduction depends on the replacement of water molecules at the interface by surfactant molecules, therefore the effectiveness of a surfactant in reducing interfacial surface tension should reflect the saturated concentration of surfactant at the interface relative to that in bulk liquid phase. During this process the surface tension of water steadily decreases as bulk phase surfactant concentration increases. This will continue until the concentration reaches the critical micelle concentration (CMC), above which the surface tension remains nearly unchanged and the interface is saturated with surfactant. The surface tension at the CMC is therefore very close to the minimum interfacial tension or maximum surface pressure that the system can achieve. The surface pressure at this point, cmc, is a suitable measure of the effectiveness of a surfactant in reducing surface tension and is given as:
cmc =20+2.3 nRT(Γmax) log[CMC/C20 ]
n=1 which represents the number of ions whose surface concentration changes with the change in liquid phase surfactant concentration.
R=8.314×107 ergs/mol K (Gas Constant)
Γmax =-1/2·303RT(∂γ/∂log [Conc])T=3.85×10^-10 mole/cm^2
CMC/C20 =is the ratio of the critical micelle concentration to the bulk phase surfactant concentration necessary to reduce the surface tension of water by 20 dyn/cm.
The effectiveness of various surfactants in reducing surface tension ( cmc) were determined and are set forth below: […]

[6] = Effectiveness of adsorption at the interface (surface excess concentration at surface saturation); details: for surface excess concentration at surface saturation (Γmax): 60° C. (T=333.15K)
Description: The surface excess concentration at surface saturation (Γmax) is defined as a measure of the effectiveness of surfactant adsorption at the water/air interface and represents the maximum value to which adsorption can be obtained. Effectiveness of adsorption is related to the interfacial area occupied by the surfactant molecule. The smaller the effective cross-sectional area of a surfactant at the interface, the greater its effectiveness of adsorption. The effectiveness of adsorption is an important factor in determining surfactant properties such as detergency, foaming, wetting or emulsification. While not wishing to be bound by theory, it is believed that surfactants that absorb effectively at the interface tend have tightly packed coherent interfacial films and often provide better surfactant benefits than those with loosely packed noncoherent films. The effectiveness of adsorption of C8 /C10 oxypropyl D-gluconarnide was determined using the Gibbs equation given as:
Γmax =-1/2.303RT(∂γ/∂log[Conc])T
(∂γ/∂log[Conc)T =-24.574971 ergs/cm^2 (which is equivalent to the
slope of a plot of γ versus log[Conc]) R=8.3 14×10^7 ergs/mol K (Gas Constant)
The surface excess concentration at surface saturation (Γmax) of various surfactants were determined and are set forth below: […]

[7] = Area per molecule at the interface; details: 60° C.
Description: The area per molecule of a surfactant at the water/air interface provides information on the degree of packing and the orientation of the adsorbed surfactant molecule. While not wishing to be bound by theory, it is believed that surfactants that have small area per molecule values tend to pack more closely at the interface than those with large area per molecule values. From the surface excess concentration at surface saturation (Γmax), the area per molecule (am) of C8 /C10 oxypropyl D-gluconamide was determined and is given by:
am =1×10^16 /Nav Γmax
Γmax =-1/2·303RT(∂γ/∂log[Conc])T
NAV =6.0221×10^23 per gram mole (Avogadro's Number)
The area per molecule (am) of several surfactants were-determined and are set forth below: […]

[8] = Micellar shape and structure (packing parameter)
Description: A theory of micellar structure, based upon the geometry of various micelle shapes and the space occupied by the surfactant has been disclosed by J. N. Israelachvili, D. J. Mitchell and B. W. Ninham in the J. Chem. Soc. Faraday Trans. 2, 1525, 72, (1976) which is given as the packing parameter (p).
VT =V(CH3) +(nc -1)V(CH2) and represents the volume occupied by the hydrophobic groups in the micellar core at a given temperature.
1c =1.50+1.26 nc Å and represents the length of the hydrophobic group in the core.
am =area per molecule or the cross-sectional area occupied by the hydrophilic group at the interface.
nc =total number of carbons in the alkyl chain.
Values obtained from the packing parameter (p) represent the following structures:
The packing parameter (p) of C8 /C10 oxypropyl D-Gluconamide was determined as follows: […]

- Krafft Point (0.1%) [1]: 48 °C
- pC20 (in words) [4]: high pC20 value
- surface pressure at the CMC (cmc) [5]: 38.5 dyn/cm
- surface excess concentration / cross sectional area (in words) [6]: small cross sectional area
- surface excess concentration at surface saturation (Γmax) ([6]; listed as C8 /C10 Oxypropyl D-Gluconamide): 3.85 × 10^-10 mole/cm^2
- surface excess concentration at surface saturation (Γmax) ([6]; listed as C8 /C10 oxypropyl D-gluconamide): 3.85×10^-10 mole/cm^2
- area per molecule (am) [7]: 43.1 Å^2
- VT, volume occupied by the hydrophobic groups in the micellar core ([8]; T=333.15° K.): 379.7 Å^3
- la, length of the hydrophobic group in the core ([8]; one oxygen atom taken as one methylene group): 17.5 Å
Substance: C8 /C10 oxypropyl D-gluconamide [Q]
- CMC / micelle formation (in words) [2]: forms micelles at a surprising low critical micelle concentration
- surface tension reduction (in words) [3]: significant reduction in water surface tension
